Laboratory results published in US20130259986A1, “COMPOSITIONS AND METHODS FOR INHIBITING PRECIPITATION OF DYES IN A BEVERAGE” (Kraft Foods Global Brands LLC, priority 2012, published 2013).

What was measured:
[1] = Example 5: precipitation from 90× electrolyte beverage product with 0.45 wt % Red 40 and added benzaldehyde solution or propylene glycol; format: physicochemical
Experimental: A 90× electrolyte beverage product was made without flavor containing 0.45 wt % Red 40, and a 3.0% benzaldehyde solution was made with propylene glycol. The benzaldehyde solution was then added back to the flavorless base at various levels up to 10%. As a control, the same variants were made without benzaldehyde solution, but with 100% propylene glycol, to confirm that any precipitation was directly due to the benzaldehdye and not propylene glycol. The formulations are as follows: […]

[2] = Observation of precipitate in model solutions of azo-dye, salt, benzaldehyde and water; format: physicochemical; conditions: for precipitation of a single azo-dye from solutions: solutions with (1) blends of two or more salts, (2) sweetener, (3) fiber (inulin) with sodium chloride; for precipitate in a solution of the substance and water: substance and water only
Description: It was observed that many solutions fail to keep a single azo-dye species stable in the presence of electrolyte ions. For example, the azo-dye (Yellow 5, Yellow 6, or Red 40) precipitated from solutions containing the following: (1) blends of two or more salts (including potassium chloride, tripotassium phosphate, sodium chloride, and magnesium chloride) with a single azo-dye; (2) sweetener (including sucrose, fructose, and raw honey) and a single azo-dye; and (3) fiber (such as inulin) with sodium chloride and a single azo-dye.
Such precipitate is believed to be crystals of the azo-dye or possibly even co-crystals of the azo-dye with sodium chloride, sodium ions, chloride ions, or sodium and chloride ions. It is believed that the presence of an ion (not limited to sodium and/or chloride) creates an unfavorable environment for the azo-dye to exist in and causes the azo-dye to precipitate or crystallize. However, this crystallization or precipitation is not observed when levels of salt or azo-dye are below the threshold for the reaction to occur.
While wishing to not be bound by theory, a solution of benzaldehyde, salt, Red 40, and water causes precipitation through a different mechanism when compared to precipitate found from solutions of salt, an azo-dye, and water. […] Such precipitate is believed to be due the complexation of salt, Red 40, and benzaldehyde. This complexation may occur due to the thermodynamic unfavorability of all three components to exist in solution with one another. The precipitation found in this system appears to be more sediment-like rather than crystal-like precipitate found in a solution of Red 40, salt, and water. However, crystals or co-crystals may exist within the salt, Red 40, and benzaldehyde complexation and this complexation is not observed when levels of salt, azo-dye, or benzaldehyde are below the threshold for the reaction to occur.

[3] = 4 % added to 90 % electrolyte base (0.45 wt % Red 40), 0.12% benzaldehyde for the benzaldehyde solution
[4] = 6 % added to 90 % electrolyte base (0.45 wt % Red 40), 0.18% benzaldehyde for the benzaldehyde solution
[5] = 8 % added to 90 % electrolyte base (0.45 wt % Red 40), 0.24% benzaldehyde for the benzaldehyde solution
[6] = 10 % added to 90 % electrolyte base (0.45 wt % Red 40), 0.3% benzaldehyde for the benzaldehyde solution

Row | SMILES | Observations after 2 months at 70 F. (room temp) ([1]; 0.1 % added to 90 % electrolyte base (0.45 wt % Red 40)) | Observations after 2 months at 70 F. (room temp) ([1]; 0.25 % added to 90 % electrolyte base (0.45 wt % Red 40)) | Observations after 2 months at 70 F. (room temp) ([1]; 0.5 % added to 90 % electrolyte base (0.45 wt % Red 40)) | Observations after 2 months at 70 F. (room temp) ([1]; 1 % added to 90 % electrolyte base (0.45 wt % Red 40)) | Observations after 2 months at 70 F. (room temp) ([1]; 2 % added to 90 % electrolyte base (0.45 wt % Red 40)) | Observations after 2 months at 70 F. (room temp) [1, 3] | Observations after 2 months at 70 F. (room temp) [1, 4] | Observations after 2 months at 70 F. (room temp) [1, 5] | Observations after 2 months at 70 F. (room temp) [1, 6] | precipitate / complexation in a solution of salt, azo-dye, benzaldehyde, and water [2] | precipitation of a single azo-dye from solutions [2] | precipitate in a solution of the substance and water [2] | benzaldehyde content at which the system is free of precipitation ([1]; 90× electrolyte concentrate with 0.45 wt % Red 40, stored for up to 2 months)
1 | CC(O)CO (stereo not drawn) [PG 100%, Propylene Glycol] | No precipitation | No precipitation | No precipitation | No precipitation | No precipitation | No precipitation | No precipitation | No precipitation | No precipitation | – | – | – | –
2 | COc1cc(S(=O)(=O)[O-])c(C)cc1N=Nc1c(O)ccc2cc(S(=O)(=O)[O-])ccc12.[Na+].[Na+] [Red 40] | – | – | – | – | – | – | – | – | – | not stable and produces precipitate | precipitated | free of precipitate | –
3 | O=C(O)c1nn(-c2ccc(S(=O)(=O)O)cc2)c(O)c1N=Nc1ccc(S(=O)(=O)O)cc1 [Yellow 5] | – | – | – | – | – | – | – | – | – | no complexations were observed | precipitated | free of precipitate | –
4 | O=S(=O)([O-])c1ccc(N=Nc2c(O)ccc3cc(S(=O)(=O)[O-])ccc23)cc1.[Na+].[Na+] [Yellow 6] | – | – | – | – | – | – | – | – | – | no complexations were observed | precipitated | free of precipitate | –
5 | O=Cc1ccccc1 [benzaldehyde] | – | – | – | – | – | formed precipitation | formed precipitation | formed precipitation within hours | formed precipitation within hours | – | – | free of precipitate | up to 0.11%
